Entries after “also recorded” stand apart in the source; their conditions may differ. Where two headings read alike, the source gives them in different places. One block for each compound: values may come before it.
Columns and labels:
Format in all cases: biochemical
[1] = molecular target: T1, TAFI (Homo sapiens, UniProt Q96IY4); assay: TAFI activation by thrombin/thrombomodulin, SDS-PAGE; conditions: aliquots after 20 minutes, SDS-PAGE (FIG. 4)
T1 construct: purchased Hematological Associates (Essex Junction, Vt.)
T1 sequence (Q96IY4 23-423 limits assumed): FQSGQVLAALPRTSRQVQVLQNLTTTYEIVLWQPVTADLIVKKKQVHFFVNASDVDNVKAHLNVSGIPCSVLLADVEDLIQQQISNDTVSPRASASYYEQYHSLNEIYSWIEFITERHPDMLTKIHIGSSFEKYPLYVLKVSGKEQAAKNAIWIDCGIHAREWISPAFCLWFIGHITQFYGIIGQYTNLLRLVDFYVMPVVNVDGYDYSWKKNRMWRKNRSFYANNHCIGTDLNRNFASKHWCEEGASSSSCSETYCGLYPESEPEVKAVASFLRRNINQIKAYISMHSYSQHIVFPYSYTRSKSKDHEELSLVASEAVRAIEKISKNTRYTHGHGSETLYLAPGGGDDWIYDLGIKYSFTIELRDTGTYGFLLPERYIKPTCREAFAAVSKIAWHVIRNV
Method: After 20 minutes, aliquots were removed and analyzed by SDS-PAGE. Lane 1. Acetylsalicylic acid; 2. Salicylic acid; 3. 4-hydroxybenzoic acid; 4. 2-hydroxybenzoic acid (salicyluric acid); 5. Ibuprofen; 6. Acetominophen; 7 Control with no addition; 8. TAFI.
Not only, then, do SA and SU inhibit enzyme activity, they also retard the generation of TAFIa. Without being bound by any theory, this provides a dual mechanism by which fibrinolysis is enhanced during high dose aspirin therapy. The proposed pathways by which aspirin and its major metabolites SA and SU enhance fibrinolysis through inhibition of TAFI is presented in FIG. 5. […] Undas et al., 2001, Blood 98:2423-31.

[2] = molecular target: T2, TAFIa (Homo sapiens, UniProt Q96IY4); assay: TAFIa carboxypeptidase activity, ActiFLUOR TAFIa fluorescence-based assay; set-up: purchased American Diagnostica Inc. (Greenwich, Conn.) 3874TAFIa; conditions: for effect on TAFIa carboxypeptidase activity (residual TAFIa activity): incubation 1 hour at room temperature, various concentrations
T2 sequence (Q96IY4 115-423): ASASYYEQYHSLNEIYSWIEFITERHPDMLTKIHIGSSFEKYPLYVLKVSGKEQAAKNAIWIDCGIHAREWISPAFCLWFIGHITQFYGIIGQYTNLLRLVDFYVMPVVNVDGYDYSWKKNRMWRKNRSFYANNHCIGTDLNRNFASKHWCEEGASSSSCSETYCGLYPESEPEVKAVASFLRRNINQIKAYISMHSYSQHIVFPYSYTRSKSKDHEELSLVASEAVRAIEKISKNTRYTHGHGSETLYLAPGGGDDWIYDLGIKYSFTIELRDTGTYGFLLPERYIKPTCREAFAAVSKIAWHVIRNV
Method: Residual TAFIa activity was measured using ActiFLUOR TAFIa.
Residual TAFIa activity was measured using ActiFLUOR TAFIa. […] About 60% TAFIa activity is lost at 25 mM SA.
Materials. TAFI was purchased from Hematological Associates (Essex Junction, Vt.) and TAFIa (3874TAFIa) was from American Diagnostica Inc. (Greenwich, Conn.). Carboxypeptidase activity of TAFIa was determined using ACTIFLUOR™ TAFI (#874FX) a fluorescence-based assay from American Diagnostica (Greenwich, Conn.). ASA, SA and SU were obtained from Sigma Chemical Co. (St. Louis, Mo.).
Results. The present inventors have made the surprising discovery that ASA, SA and SU may shift the hemostatic balance toward a profibrinolytic state by inhibition of TAFIa, the major regulator of fibrinolysis. TAFIa was incubated with various concentrations of ASA, SA and SU for one hour, at room temperature. Residual TAFIa activity was measured using ActiFLUOR TAFIa. […] Catella-Lawson and coworkers recently reported that ibuprofen, taken prior to aspirin, blocks the irreversible inhibition of COX-1 by aspirin and abrogates the anti-platelet activity of aspirin. Catella-Lawson, F. et al., 2001, N. Engl. J. Med. 345(25):1809-17. Since ibuprofen has little effect on TAFI, it was reasonable to conclude that ibuprofen taken prior to aspirin would not block the profibrinolytic activity of aspirin caused by TAFI inhibition.

[3] = molecular target: T2, TAFIa; assay: ActiScreen TAFI HTS assay (TAFIa carboxypeptidase, hippuryl-L-lysine/LOX/HRP); set-up: made in house; host or cells: native human TAFI (not recombinant)
Method: The activity of the chemical compounds was assessed in the ActiScreen® TAFI HTS assay, the principle of which is shown below.
The assay is run by mixing TAFIa and test compound in microtiter plate wells. “TAFI developer” is then added to start the reaction which is run at room temperature. The TAFI developer is formulated with hippuryl-L-lysine, lysine oxidase, horseradish peroxidase and ortho-phenylene-diamine. Hippuryl-L-lysine is converted by TAFIa to hippuric acid and L-lysine. Lysine-Oxidase (LOX) converts the lysine to 6-amino-2-oxo-hexanoic acid and hydrogen peroxide. The hydrogen peroxide is used along with ortho-phenylene-diamine […] as substrate for horseradish peroxidase. The reaction produces a yellow color that was monitored for Vmax in a spectrophotometer (SpectroMax 190, Molecular Devices, Sunnyvale, Calif.) in the kinetic mode at 450 nm.
The assay can also be run as an endpoint reaction in which the enzymatic reaction is stopped at a selected point in time with 0.5 M sulphuric acid. The resulting color is read at 490 nm. A TAFI inhibitor will block the first reaction in the cascade in which TAFIa converts hippuryl-L-lysine to hippuric acid and lysine, which finally results in a decrease in Vmax or OD 490 nm relative to control reaction without addition of test compound. The assay has been designed to be run in final concentrations of DMSO of up to 20%. A known inhibitor of TAFIa carboxypeptidase activity, potato tuber carboxypeptidase inhibitor (PTCI), is used as a positive control.
Positive hits were selected based upon the ability of compounds to inhibit carboxypeptidase activity of TAFIa, as measured in the ActiScreen assay. The major criterion for selection of “hits” was based on their potency, as determined by the concentration of compound that inhibits the activity of TAFIa in the Actiscreen TAFI assay by 50% (“IC50”).

[4] = tested on: LOX/HRP; assay: Dereplication assay: reaction of LOX/HRP with lysine; conditions: concentrations 5-10 times greater than IC50 for TAFI
Method: Positive hits identified with the ActiScreen TAFI assay were dereplicated to ensure that the inhibition of color development is due to blocking of the first reaction of the linked enzyme system catalyzed by TAFIa and not to inhibition of LOX or HRP.
Compounds L278R and LT32 were tested in the dereplication assay, described above.

[5] = molecular target: T3, Carboxypeptidase N(CPN) (Homo sapiens, UniProt P15169); assay: Specificity against Carboxypeptidase N in pooled normal human plasma; conditions: PNP (1:10), serially diluted compound
T3 construct: pooled normal human plasma (PNP) was used as the source of CPN; from tissue; host or cells: pooled normal human plasma (PNP), diluted 1:10
T3 sequence (P15169 21-458): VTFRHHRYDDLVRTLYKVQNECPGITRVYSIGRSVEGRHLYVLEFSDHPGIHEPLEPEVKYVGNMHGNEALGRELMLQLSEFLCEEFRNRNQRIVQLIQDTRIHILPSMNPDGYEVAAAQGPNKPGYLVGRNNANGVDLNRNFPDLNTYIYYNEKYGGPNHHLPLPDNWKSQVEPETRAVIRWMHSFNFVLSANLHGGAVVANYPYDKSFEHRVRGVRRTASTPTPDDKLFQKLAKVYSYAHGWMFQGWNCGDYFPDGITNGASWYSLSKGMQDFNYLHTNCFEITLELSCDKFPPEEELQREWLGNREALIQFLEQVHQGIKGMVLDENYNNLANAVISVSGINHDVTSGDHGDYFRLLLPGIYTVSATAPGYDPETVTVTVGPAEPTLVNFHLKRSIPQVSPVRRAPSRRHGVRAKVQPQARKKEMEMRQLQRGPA
T3 sequence (P22792 22-545 partner): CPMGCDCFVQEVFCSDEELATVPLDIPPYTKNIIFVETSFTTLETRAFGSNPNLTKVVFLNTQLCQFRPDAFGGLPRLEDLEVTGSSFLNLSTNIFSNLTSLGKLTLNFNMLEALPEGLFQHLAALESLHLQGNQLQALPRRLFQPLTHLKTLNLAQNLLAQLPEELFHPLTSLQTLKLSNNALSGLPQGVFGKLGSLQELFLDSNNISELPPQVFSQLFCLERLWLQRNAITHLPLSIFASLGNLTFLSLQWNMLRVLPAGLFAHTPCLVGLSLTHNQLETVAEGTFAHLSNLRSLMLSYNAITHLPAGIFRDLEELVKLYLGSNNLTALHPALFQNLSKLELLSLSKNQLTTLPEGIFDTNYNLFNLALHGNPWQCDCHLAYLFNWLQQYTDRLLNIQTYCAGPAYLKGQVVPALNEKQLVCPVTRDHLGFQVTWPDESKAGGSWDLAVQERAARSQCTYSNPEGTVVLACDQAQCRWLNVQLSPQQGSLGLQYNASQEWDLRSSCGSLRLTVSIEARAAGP
Method: L278R was also tested for specificity against Carboxypeptidase N(CPN). CPN is the constituitively active carboxypeptidase B-like enzyme in plasma. In this study, pooled normal human plasma (PNP) was used as the source of CPN. The specificity studies were performed by adding PNP (1:10), ActiScreen developer and serially diluted test compound into microtiter wells. Inhibition of color development was an indication of inhibitory activity towards CPN.

[6] = molecular target: T2, TAFIa; assay: TAFIa inhibition with Actichrome 874 TAFI Developer (Vmax); set-up: purchased American Diagnostica Inc. (Greenwich, Conn.) 3874TAFIa; conditions: different concentrations, Vmax (FIG. 6)
Method: Different concentrations of gentisic acid (GA) were incubated with TAFIa and Actichrome 874 TAFI Developer. TAFI activity (Vmax) was determined.

concentration at which significant inhibition of TAFI activity occurs ([2]; incubation 1 hour at room temperature (FIG. 1)): ~600 µg/mL
SMILES: CC(=O)Oc1ccccc1C(=O)O [ASA, acetylsalicylic acid]
effect on activation of TAFI to TAFIa by thrombin/thrombomodulin [1]: did not appear to have a significantly effect
effect on TAFIa carboxypeptidase activity (residual TAFIa activity) [2]: directly inhibited; also recorded: inhibited in a dose-dependent manner

IC50 [3]: 44 µM
SMILES: O=C(N[C@H](CO)Cc1ccccc1)c1cc(O)ccc1O [JV59, N-[(S)-1-hydroxy-3-phenyl-2-propyl]-2,5-dihdroxybenzamide]

inhibition of CPN [5]: did not inhibit CPN
IC50 ([3]; TAFIa preincubated with compound 1 hour at 4° C. prior to assay): 890 µM
type of inhibition of TAFIa ([3]; no preincubation): competitive type inhibitor
IC50 ([3]; no preincubation, assay as in Example 3): 1540 µM
type of inhibition of TAFIa ([3]; preincubated 1 hour at 4° C.): non-competitive-type inhibitor
SMILES: NCCCNC(=O)OCCNC(=O)c1ccccc1O [L278R, 2-(2-hydroxybenzoylamino)ethyl N-(3-aminopropyl)carbamate]
effect on reaction rate (Vmax) of LOX/HRP with lysine [4]: Neither of the compounds had a significant effect

SMILES: O=C(NCCNC(=O)c1cc(OCc2ccccc2)ccc1OCc1ccccc1)OCCNC(=O)c1ccccc1O [LT32]
effect on reaction rate (Vmax) of LOX/HRP with lysine [4]: Neither of the compounds had a significant effect
IC50 [3]: 225 µM
type of inhibition of TAFIa ([3]; no preincubation): competitive inhibitor

effect on activation of TAFI to TAFIa by thrombin/thrombomodulin [1]: inhibit activation of TAFI to TAFIa
effect on activation of TAFI to TAFIa by thrombin/thrombomodulin ([1]; listed as salicylic acid): inhibit the activation of TAFI
TAFIa activity lost ([2]; 25 mM, room temperature, 1 hour (FIG. 3)): About 60%
SMILES: O=C(O)c1ccccc1O [SA, salicylic acid]
effect on TAFIa carboxypeptidase activity (residual TAFIa activity) [2]: directly inhibited; also recorded: inhibited in a dose-dependent manner

effect on activation of TAFI to TAFIa by thrombin/thrombomodulin [1]: inhibit activation of TAFI to TAFIa
effect on activation of TAFI to TAFIa by thrombin/thrombomodulin ([1]; listed as 2-hydroxybenzoic acid (salicyluric acid)): inhibit the activation of TAFI
rank of potency as TAFIa inhibitor ([2]; SU vs SA vs ASA, 1 hour at room temperature): most effective inhibitor
SMILES: O=C(O)CNC(=O)c1ccccc1O [SU, salicyluric acid (2-hydroxyhippuric acid)]
effect on TAFIa carboxypeptidase activity (residual TAFIa activity) [2]: directly inhibited; also recorded: inhibited in a dose-dependent manner

effect on TAFIa carboxypeptidase activity (residual TAFIa activity) [2]: little inhibitory effect
SMILES: CC(=O)Nc1ccc(O)cc1 [acetominophen]

type of inhibition of TAFIa [6]: competitive inhibition
SMILES: O=C(O)c1cc(O)ccc1O [gentisic acid]

effect on TAFIa carboxypeptidase activity (residual TAFIa activity) [2]: little inhibitory effect
SMILES: CC(C)Cc1ccc(C(C)C(=O)O)cc1 (stereo not drawn) [ibuprofen]
